The numbers were not newly measured in patent US11497741B2, “Granules containing diamine derivative” (DAIICHI SANKYO COMPANY, LIMITED, priority 2018, dated 2022), which cites them from elsewhere.

As for `CN1CCc2nc(C(=O)N[C@@H]3C[C@@H](C(=O)N(C)C)CC[C@@H]3NC(=O)C(=O)Nc3ccc(Cl)cn3)sc2C1` [Edoxaban, N^1-(5-Chloropyridin-2-yl)-N^2-((1S,2R,4S)-4-[(dimethylamino)carbonyl]-2-{[(5-methyl-4,5,6,7-tetrahydrothiazolo[5,4-c]pyridin-2-yl)carbonyl]amino}cyclohexyl)ethanediamide], under “neutral aqueous solution (neutral buffer solution)”, the “solubility (water solubility)” value was “reduced solubility”. Also, the solubility result (strongly acidic aqueous solution) is “good solubility”.
